Measurements taken from publication PMC12865225 (Clinical and Translational Science, 2026).
Several values for one entry are separate records, joined by “and”; a condition that tells them apart may be missing. Equal values may be shown once. Marks after values point to notes of the source that are not given here.

Tests used:
[1] = biological target: T1, P-gp (Homo sapiens, UniProt P08183); assay: Efflux transport assay in P-gp HEK293 membrane vesicles; type: biochemical; details: 5 and 50 µM, 10 min
T1 construct: made in house; host or cells: membrane vesicles from HEK293 cells expressing the transporter
T1 sequence (P08183 whole entry): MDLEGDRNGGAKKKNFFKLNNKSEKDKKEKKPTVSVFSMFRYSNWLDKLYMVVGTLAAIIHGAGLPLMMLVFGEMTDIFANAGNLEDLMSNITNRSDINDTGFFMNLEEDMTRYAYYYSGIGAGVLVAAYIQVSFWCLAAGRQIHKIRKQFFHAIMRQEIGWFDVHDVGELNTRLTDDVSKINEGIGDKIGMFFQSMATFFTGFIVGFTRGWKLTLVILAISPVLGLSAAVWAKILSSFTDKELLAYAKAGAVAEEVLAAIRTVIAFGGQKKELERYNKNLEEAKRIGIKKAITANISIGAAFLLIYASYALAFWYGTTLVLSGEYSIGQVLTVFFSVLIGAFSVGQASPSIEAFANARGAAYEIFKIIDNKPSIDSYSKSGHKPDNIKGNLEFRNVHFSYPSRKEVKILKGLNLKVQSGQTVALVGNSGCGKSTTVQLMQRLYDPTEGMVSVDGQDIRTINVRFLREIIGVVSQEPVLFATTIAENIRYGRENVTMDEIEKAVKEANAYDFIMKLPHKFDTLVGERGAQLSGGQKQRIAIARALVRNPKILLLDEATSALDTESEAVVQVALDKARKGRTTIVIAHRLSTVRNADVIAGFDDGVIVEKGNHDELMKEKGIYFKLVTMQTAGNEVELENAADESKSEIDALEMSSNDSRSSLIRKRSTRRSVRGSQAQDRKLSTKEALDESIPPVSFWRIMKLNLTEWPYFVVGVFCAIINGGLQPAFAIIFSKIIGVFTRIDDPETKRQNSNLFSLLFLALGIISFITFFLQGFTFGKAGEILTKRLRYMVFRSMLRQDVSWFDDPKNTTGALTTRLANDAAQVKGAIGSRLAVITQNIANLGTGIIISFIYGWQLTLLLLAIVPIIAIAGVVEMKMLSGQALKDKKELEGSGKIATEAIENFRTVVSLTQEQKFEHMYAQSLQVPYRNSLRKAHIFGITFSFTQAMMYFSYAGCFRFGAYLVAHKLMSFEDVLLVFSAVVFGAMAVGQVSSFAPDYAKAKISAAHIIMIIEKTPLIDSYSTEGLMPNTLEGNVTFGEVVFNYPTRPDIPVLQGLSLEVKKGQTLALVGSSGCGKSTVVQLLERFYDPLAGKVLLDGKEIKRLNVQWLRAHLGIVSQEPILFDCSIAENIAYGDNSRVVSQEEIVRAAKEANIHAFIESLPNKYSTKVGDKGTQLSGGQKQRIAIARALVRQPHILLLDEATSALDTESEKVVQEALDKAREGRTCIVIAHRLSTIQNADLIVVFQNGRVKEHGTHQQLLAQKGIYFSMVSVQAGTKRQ
Protocol: Membrane vesicles, 5 μL (7.5 μg of total protein), prepared as previously reported, were aliquoted to wells of a conical‐shaped 96‐well plate. The plate was incubated for 10 min at +37°C before the initiation of transport by adding 25 μL of TS‐buffer (10 mM Tris, 250 mM sucrose, pH adjusted to 7.4 with HEPES) containing magnesium chloride (10 mM final in the reaction), adenosine triphosphate (ATP) or adenosine monophosphate (AMP), 4 mM final in the reaction, and the transporter substrate and inhibitor. Each experiment included triplicate samples for both ATP and AMP samples. The concentrations of rosuvastatin and N‐methyl‐quinidine were 1 μM in the BCRP and P‐gp vesicle inhibition assays, respectively. […] The transport reactions were quenched by adding 200 μL of cold TS‐buffer to each well and transferring the samples to a 96‐multiwell 1.0 μm glass fiber filter plate (Merck Millipore, Darmstadt, Germany) kept under vacuum. Wells were further washed four times with cold TS‐buffer, after which the plate was dried under vacuum. The compounds were eluted from the plate by applying 100 μL of 75% methanol containing 0.1% formic acid to each well and incubating at 250 RPM for 30 min before centrifuging the samples to an analysis plate at 2800 g for 2 min. For the rosuvastatin samples, the elution solvent contained rosuvastin‐d6 as the internal standard. […]

[2] = biological target: T2, OATP1B1 (Homo sapiens, UniProt Q9Y6L6); assay: OATP1B1 inhibition, rosuvastatin uptake into transporter-expressing HEK293 cells; type: cell-based; details: for IC50: IC50 (95% CI), μM OATP1B1, 2.5 μM rosuvastatin, 2 min, 30 min preincubation; for Calculated R-value OATP1B1: R = 1 + (I in,max,u/IC50), FDA cut-off ≥ 1.1
T2 construct: expressed in transfected cells; host or cells: HEK293 (recombinant baculovirus-mediated transduction)
T2 sequence (Q9Y6L6 1-691): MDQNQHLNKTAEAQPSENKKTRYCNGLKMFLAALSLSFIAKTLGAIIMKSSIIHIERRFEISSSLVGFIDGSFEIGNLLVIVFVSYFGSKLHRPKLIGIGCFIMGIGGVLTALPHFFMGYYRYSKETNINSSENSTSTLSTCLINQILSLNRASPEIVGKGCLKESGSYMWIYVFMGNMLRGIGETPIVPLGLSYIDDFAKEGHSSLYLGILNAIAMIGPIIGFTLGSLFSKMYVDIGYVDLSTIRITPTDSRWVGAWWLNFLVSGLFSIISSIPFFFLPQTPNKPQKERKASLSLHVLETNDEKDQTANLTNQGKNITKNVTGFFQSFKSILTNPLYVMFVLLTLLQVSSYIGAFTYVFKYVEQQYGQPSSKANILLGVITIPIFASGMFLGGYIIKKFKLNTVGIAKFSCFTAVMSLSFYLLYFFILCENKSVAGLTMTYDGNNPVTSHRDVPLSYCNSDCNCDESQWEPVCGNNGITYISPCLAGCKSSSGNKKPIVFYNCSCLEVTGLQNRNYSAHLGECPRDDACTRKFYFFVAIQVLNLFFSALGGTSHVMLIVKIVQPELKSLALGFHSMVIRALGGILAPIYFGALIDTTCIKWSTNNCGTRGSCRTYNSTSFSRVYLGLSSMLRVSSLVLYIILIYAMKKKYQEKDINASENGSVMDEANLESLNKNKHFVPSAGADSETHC
Protocol: The human transporters OATP1B1, OATP1B3, OATP2B1, and OAT1‐OAT4 and a negative control protein (enhanced yellow fluorescent protein, eYFP) were transiently expressed in human embryonic kidney 293 (HEK293) cells by recombinant baculovirus‐mediated transduction. Baculoviruses carrying human genes for the transporters were prepared as reported previously. HEK293 cells were cultured in DMEM containing 10% fetal bovine serum at 37°C and 5% CO2 and passaged two to three times per week. For the transport studies, 0.05 × 10^6 cells for 48‐well plates (OATPs) or 0.06 × 10^6 cells for 24‐well plates (OATs) were seeded onto cell‐culture treated well plates coated with poly‐D‐lysine. After 1 day, cells were transduced to produce recombinant proteins by changing media to DMEM containing 30 μL (48‐well plates) or 60 μL (24‐well plates) of recombinant baculovirus and 3 mM (OATs) or 5 mM (OATPs) sodium butyrate in a total media volume of 500 μL. The cells were cultured for a further 2 days before the transport assays.
For the transport studies, media were removed and cells were washed once with warm transport uptake buffer (TP‐buffer—pH 7.4 HBSS with 25 mM HEPES and 4 mM sodium bicarbonate). Each experiment included triplicate (OATP) or duplicate (OAT) samples for every test condition. The uptake was started by removing liquid from wells and applying warm TP‐buffer (200 μL for 24‐well plates or 125 μL for 48‐well plates) containing a test compound to cells. Transport assays were terminated after a pre‐specified incubation time (reported in figure legends) by removing substrate solution and washing cells three times with cold TP‐buffer (300 μL for 48‐well plates and 400 μL for 24‐well plates). For the liquid chromatography mass spectrometry (LC–MS) analysis, compounds were extracted from cells with 125 μL (48‐well plates) or 250 μL (24‐well plates) of an ultrapure‐water solution containing 75% methanol and 0.1% formic acid, shaking at 250 RPM for 30 min. […] Samples were transferred to well plates, centrifuged at 3000 g for 30 min, and transferred to a new well plate for the analysis.
In the OATP inhibition assays, inhibitors in warm TP‐buffer were directly applied to cells after media removal, followed by a 30‐min preincubation step in the presence of inhibitors. […] OAT1 and OAT3 cells were lysed with 200 μL of 1 M sodium hydroxide for 10 min, and 150 μL of these samples were transferred to a black well plate for fluorescein quantification. […]
For the inhibition data analysis, the average of measured concentrations in the control cells was subtracted from the average of measured concentrations in transporter‐expressing cells for each inhibitor concentration and then normalized to the vehicle sample that represents 100% transport activity. […]

transport by P-gp [1] | IC50 [2] | Calculated R-value OATP1B1 [2] | SMILES
did not transport | 3.9 µM and 3.86 µM | 2.4 ^a | Cc1onc(-c2c(Cl)cccc2Cl)c1C(=O)N[C@@H]1C(=O)N2[C@@H]1SC(C)(C)[C@@H]2C(=O)O [Dicloxacillin]
did not transport | 31 µM | 1.5 ^a | Cc1onc(-c2c(F)cccc2Cl)c1C(=O)N[C@@H]1C(=O)N2[C@@H]1SC(C)(C)[C@@H]2C(=O)O [Flucloxacillin]
